According to ChEMBL document CHEMBL4507260 (2021):

Columns and labels:
Conditions in all cases: Compound concentration 1000.0 nM
[1] = target: Glycogen synthase kinase-3 beta (Homo sapiens) (UniProt P49841)
[2] = target: Cyclin-dependent kinase 14 (Homo sapiens) (UniProt O94921)
[3] = target: Serine/threonine-protein kinase RIO2 (Homo sapiens) (UniProt Q9BVS4)
[4] = target: Ephrin type-A receptor 6 (Homo sapiens) (UniProt Q9UF33)
[5] = system: Fibroblast growth factor receptor 3 (Homo sapiens), P22607 [G697C]
[6] = target: Serine/threonine-protein kinase PAK 5 (Homo sapiens) (UniProt Q9P286)
[7] = target: Calcium/calmodulin-dependent protein kinase type IV (Homo sapiens) (UniProt Q16566)
[8] = system: Tyrosine-protein kinase ABL1 (Homo sapiens), P00519 [T315I]
[9] = target: Mitogen-activated protein kinase kinase kinase 1 (Homo sapiens) (UniProt Q13233)
[10] = target: Dual specificity tyrosine-phosphorylation-regulated kinase 1A (Homo sapiens) (UniProt Q13627)
[11] = target: Phosphatidylinositol 4-phosphate 5-kinase type-1 alpha (Homo sapiens) (UniProt Q99755)
[12] = target: Ephrin type-A receptor 4 (Homo sapiens) (UniProt P54764)
[13] = target: Inhibitor of nuclear factor kappa-B kinase subunit beta (Homo sapiens) (UniProt O14920)
[14] = system: Mast/stem cell growth factor receptor Kit (Homo sapiens), P10721 [D816V]
[15] = target: Serine/threonine-protein kinase PknB (Mycobacterium tuberculosis) (UniProt P9WI81)
[16] = target: Serine/threonine-protein kinase RIO1 (Homo sapiens) (UniProt Q9BRS2)
[17] = system: Mast/stem cell growth factor receptor Kit (Homo sapiens), P10721 [A829P]
[18] = target: Calcium/calmodulin-dependent protein kinase type II subunit gamma (Homo sapiens) (UniProt Q13555)
[19] = target: G protein-coupled receptor kinase 4 (Homo sapiens) (UniProt P32298)
[20] = target: Serine/threonine-protein kinase PAK 4 (Homo sapiens) (UniProt O96013)
[21] = target: Ephrin type-B receptor 2 (Homo sapiens) (UniProt P29323)
[22] = target: Ribosomal protein S6 kinase alpha-1 (Homo sapiens) (UniProt Q15418)
[23] = target: Serine/threonine-protein kinase pim-2 (Homo sapiens) (UniProt Q9P1W9)
[24] = target: Cyclin-dependent kinase 18 (Homo sapiens) (UniProt Q07002)
[25] = target: Activin receptor type-1 (Homo sapiens) (UniProt Q04771)
[26] = target: Calcium/calmodulin-dependent protein kinase type 1B (Homo sapiens) (UniProt Q6P2M8)
[27] = target: Cyclin-dependent kinase 7 (Homo sapiens) (UniProt P50613)
[28] = target: Serine/threonine-protein kinase LATS2 (Homo sapiens) (UniProt Q9NRM7)
[29] = target: Misshapen-like kinase 1 (Homo sapiens) (UniProt Q8N4C8)
[30] = target: Serine/threonine-protein kinase ULK1 (Homo sapiens) (UniProt O75385)
[31] = target: Serine/threonine-protein kinase BRSK2 (Homo sapiens) (UniProt Q8IWQ3)
[32] = target: Casein kinase II subunit alpha' (Homo sapiens) (UniProt P19784)
[33] = target: Serine/threonine-protein kinase TAO3 (Homo sapiens) (UniProt Q9H2K8)
[34] = target: Serine/threonine-protein kinase WNK2 (Homo sapiens) (UniProt Q9Y3S1)
[35] = target: Leucine-rich repeat serine/threonine-protein kinase 2 (Homo sapiens) (UniProt Q5S007)
[36] = target: Serine/threonine-protein kinase pim-3 (Homo sapiens) (UniProt Q86V86)
[37] = target: Platelet-derived growth factor receptor beta (Homo sapiens) (UniProt P09619)
[38] = target: Non-receptor tyrosine-protein kinase TYK2 (Homo sapiens) (UniProt P29597)
[39] = target: cGMP-dependent protein kinase 2 (Homo sapiens) (UniProt Q13237)
[40] = system: Proto-oncogene tyrosine-protein kinase receptor Ret (Homo sapiens), P07949 [V804L]
[41] = target: Ephrin type-A receptor 3 (Homo sapiens) (UniProt P29320)
[42] = target: Tyrosine-protein kinase Fer (Homo sapiens) (UniProt P16591)
[43] = target: cGMP-dependent protein kinase 1 (Homo sapiens) (UniProt Q13976)
[44] = target: Myotonin-protein kinase (Homo sapiens) (UniProt Q09013)
[45] = target: Aurora kinase C (Homo sapiens) (UniProt Q9UQB9)

Sequence of Tyrosine-protein kinase Fer (Homo sapiens) (P16591 whole entry, looked up): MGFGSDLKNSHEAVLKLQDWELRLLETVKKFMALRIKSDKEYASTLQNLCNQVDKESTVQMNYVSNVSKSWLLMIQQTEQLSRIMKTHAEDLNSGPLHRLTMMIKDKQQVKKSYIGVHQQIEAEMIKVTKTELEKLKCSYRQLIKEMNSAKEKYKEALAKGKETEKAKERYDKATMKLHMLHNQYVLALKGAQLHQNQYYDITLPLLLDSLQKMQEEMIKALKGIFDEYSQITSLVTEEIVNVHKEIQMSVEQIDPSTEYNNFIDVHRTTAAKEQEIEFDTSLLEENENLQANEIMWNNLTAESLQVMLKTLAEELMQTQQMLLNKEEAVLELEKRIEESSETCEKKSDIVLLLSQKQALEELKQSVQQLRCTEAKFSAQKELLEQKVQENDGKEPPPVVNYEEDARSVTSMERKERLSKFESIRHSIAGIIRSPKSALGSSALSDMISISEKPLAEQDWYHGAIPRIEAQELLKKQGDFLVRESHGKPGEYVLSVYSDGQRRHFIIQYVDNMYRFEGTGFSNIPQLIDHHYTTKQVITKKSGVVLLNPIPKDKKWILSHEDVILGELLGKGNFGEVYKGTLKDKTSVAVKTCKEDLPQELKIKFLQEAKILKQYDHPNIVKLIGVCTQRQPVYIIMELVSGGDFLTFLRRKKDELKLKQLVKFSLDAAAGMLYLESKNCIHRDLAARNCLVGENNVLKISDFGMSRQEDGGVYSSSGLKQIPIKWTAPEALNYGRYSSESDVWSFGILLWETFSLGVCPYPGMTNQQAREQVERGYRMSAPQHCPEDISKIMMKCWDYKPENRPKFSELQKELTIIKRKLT
Sequence of Platelet-derived growth factor receptor beta (Homo sapiens) (P09619 whole entry): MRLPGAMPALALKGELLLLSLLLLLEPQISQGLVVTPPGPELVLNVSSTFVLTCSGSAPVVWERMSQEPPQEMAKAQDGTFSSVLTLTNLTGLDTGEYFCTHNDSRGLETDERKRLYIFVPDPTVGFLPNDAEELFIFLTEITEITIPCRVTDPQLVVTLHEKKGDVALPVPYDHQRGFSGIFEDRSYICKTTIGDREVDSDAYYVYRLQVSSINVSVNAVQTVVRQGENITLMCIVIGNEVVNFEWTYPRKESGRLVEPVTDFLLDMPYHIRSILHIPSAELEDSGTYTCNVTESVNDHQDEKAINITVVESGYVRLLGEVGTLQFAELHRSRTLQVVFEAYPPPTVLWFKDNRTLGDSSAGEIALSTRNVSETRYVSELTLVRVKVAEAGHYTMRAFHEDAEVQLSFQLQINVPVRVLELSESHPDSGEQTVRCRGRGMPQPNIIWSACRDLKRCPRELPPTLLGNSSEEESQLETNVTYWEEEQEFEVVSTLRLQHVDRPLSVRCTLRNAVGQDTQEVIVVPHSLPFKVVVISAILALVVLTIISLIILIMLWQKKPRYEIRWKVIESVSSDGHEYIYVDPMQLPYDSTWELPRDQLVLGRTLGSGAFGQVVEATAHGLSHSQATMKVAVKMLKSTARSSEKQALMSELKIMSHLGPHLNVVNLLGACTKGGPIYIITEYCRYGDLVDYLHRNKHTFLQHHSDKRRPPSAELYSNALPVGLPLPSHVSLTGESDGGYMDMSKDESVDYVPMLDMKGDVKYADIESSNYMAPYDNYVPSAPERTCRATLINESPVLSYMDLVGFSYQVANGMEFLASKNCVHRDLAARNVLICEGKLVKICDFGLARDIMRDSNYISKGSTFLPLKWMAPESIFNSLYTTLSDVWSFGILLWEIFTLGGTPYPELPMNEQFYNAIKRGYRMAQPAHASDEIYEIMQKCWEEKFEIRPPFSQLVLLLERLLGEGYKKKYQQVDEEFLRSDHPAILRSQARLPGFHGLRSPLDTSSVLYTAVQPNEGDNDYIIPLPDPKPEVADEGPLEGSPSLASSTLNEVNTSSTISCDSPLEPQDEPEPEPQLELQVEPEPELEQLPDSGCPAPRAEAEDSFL
Sequence of Calcium/calmodulin-dependent protein kinase type 1B (Homo sapiens) (Q6P2M8 whole entry): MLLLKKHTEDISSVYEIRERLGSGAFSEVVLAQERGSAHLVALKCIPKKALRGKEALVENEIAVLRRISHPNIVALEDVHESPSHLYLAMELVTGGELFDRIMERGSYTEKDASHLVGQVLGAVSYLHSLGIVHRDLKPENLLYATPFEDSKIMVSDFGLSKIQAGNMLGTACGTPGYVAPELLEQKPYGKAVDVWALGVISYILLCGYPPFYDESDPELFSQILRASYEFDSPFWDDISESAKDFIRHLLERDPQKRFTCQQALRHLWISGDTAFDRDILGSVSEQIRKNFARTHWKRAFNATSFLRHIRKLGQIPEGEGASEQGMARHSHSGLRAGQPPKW
Sequence of Serine/threonine-protein kinase pim-2 (Homo sapiens) (Q9P1W9 whole entry, looked up): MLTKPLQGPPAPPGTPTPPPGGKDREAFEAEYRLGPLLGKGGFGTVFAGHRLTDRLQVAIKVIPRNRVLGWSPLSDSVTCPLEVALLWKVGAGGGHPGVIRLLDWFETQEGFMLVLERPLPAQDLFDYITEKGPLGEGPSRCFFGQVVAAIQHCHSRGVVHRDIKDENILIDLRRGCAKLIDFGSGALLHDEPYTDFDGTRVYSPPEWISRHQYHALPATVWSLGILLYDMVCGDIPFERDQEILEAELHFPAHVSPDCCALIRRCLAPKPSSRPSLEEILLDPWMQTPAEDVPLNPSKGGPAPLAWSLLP
Sequence of Ribosomal protein S6 kinase alpha-1 (Homo sapiens) (Q15418 whole entry): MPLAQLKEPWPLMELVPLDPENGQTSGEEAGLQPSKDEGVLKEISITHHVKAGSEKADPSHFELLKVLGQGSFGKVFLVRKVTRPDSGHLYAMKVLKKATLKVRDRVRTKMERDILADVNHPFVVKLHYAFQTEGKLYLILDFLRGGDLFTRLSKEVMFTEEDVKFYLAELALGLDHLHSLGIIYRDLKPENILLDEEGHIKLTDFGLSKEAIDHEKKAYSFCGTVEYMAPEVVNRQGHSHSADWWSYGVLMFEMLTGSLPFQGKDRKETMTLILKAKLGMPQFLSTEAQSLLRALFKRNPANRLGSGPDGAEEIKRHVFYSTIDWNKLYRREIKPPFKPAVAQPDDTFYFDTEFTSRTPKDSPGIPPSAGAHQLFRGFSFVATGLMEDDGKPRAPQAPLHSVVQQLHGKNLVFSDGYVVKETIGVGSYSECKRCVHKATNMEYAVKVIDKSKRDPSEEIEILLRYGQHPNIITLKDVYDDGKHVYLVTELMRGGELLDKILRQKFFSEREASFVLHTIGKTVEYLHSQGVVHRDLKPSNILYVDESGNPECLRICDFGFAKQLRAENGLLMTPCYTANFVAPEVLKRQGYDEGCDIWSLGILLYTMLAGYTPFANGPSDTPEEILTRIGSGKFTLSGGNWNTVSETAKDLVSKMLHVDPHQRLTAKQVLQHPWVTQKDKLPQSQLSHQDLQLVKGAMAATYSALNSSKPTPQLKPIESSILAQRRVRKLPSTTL
Sequence of Serine/threonine-protein kinase TAO3 (Homo sapiens) (Q9H2K8 whole entry): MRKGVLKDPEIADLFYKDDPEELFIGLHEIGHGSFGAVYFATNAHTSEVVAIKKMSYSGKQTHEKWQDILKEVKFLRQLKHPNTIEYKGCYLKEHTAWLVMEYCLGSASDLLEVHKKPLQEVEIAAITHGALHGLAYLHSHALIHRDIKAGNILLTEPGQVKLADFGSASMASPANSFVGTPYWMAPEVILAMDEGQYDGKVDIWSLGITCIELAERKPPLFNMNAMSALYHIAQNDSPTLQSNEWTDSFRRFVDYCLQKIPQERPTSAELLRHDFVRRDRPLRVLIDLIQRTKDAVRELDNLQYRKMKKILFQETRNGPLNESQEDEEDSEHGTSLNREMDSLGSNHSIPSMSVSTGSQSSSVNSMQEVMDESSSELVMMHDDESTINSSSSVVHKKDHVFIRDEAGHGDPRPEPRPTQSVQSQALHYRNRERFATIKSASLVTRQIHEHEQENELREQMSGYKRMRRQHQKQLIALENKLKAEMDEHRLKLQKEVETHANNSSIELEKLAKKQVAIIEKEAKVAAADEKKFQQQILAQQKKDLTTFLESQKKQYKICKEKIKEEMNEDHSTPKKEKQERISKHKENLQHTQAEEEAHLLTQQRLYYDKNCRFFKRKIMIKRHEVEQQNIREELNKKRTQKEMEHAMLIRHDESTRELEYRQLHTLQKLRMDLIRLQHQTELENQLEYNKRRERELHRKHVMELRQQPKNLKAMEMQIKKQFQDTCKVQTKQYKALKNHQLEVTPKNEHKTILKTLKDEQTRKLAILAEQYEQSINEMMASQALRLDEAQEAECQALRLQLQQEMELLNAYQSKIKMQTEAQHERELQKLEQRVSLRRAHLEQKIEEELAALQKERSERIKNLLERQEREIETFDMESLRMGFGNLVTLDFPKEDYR
Sequence of Glycogen synthase kinase-3 beta (Homo sapiens) (P49841 whole entry, looked up): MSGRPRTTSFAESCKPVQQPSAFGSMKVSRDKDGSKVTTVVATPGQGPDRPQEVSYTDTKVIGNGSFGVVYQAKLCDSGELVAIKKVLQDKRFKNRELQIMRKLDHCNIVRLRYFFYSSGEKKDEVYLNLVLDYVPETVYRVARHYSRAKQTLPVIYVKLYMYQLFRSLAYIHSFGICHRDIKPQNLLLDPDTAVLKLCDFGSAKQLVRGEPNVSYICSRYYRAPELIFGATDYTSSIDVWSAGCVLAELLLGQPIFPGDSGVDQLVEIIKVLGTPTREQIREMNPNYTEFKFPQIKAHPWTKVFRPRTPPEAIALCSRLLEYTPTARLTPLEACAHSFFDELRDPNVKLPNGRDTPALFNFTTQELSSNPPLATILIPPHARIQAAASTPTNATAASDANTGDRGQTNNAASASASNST

With `c1ccc(N2CCN(Cc3nc4ccccc4[nH]3)CC2)nc1` [ABT-724] the residual activity [1] was 93%, the residual activity [2] was 100% and the residual activity [3] was 100%. For the same compound, the residual activity [4] was 100%, the residual activity [5] was 100% and the residual activity [6] was 100%. For the same compound, the residual activity [7] was 88%, the residual activity [8] was 100% and the residual activity [9] was 99%. For the same compound, the residual activity [10] was 100%, the residual activity [11] was 79% and the residual activity [12] was 100%. It also gave a residual activity [13] of 100%, a residual activity [14] of 100% and a residual activity [15] of 87%. It also gave a residual activity [16] of 86%, a residual activity [17] of 100% and a residual activity [18] of 100%. For the same compound, the residual activity [19] was 100%, the residual activity [20] was 93% and the residual activity [21] was 98%. For the same compound, the residual activity [22] was 100%, the residual activity [23] was 85% and the residual activity [24] was 94%. The residual activity [25] was 100%, the residual activity [26] was 0% and the residual activity [27] was 48%. It also gave a residual activity [28] of 75%, a residual activity [29] of 100% and a residual activity [30] of 100%. For the same compound, the residual activity [31] was 100%, the residual activity [32] was 100% and the residual activity [33] was 86%. For the same compound, the residual activity [34] was 100%, the residual activity [35] was 99% and the residual activity [36] was 100%. It also gave a residual activity [37] of 100%, a residual activity [38] of 100% and a residual activity [39] of 100%. It also gave a residual activity [40] of 100%, a residual activity [41] of 100% and a residual activity [42] of 100%. For the same compound, the residual activity [43] was 100%, the residual activity [44] was 100% and the residual activity [45] was 100%.

For `CSc1cccnc1N1CCN(Cc2nc3ccccc3[nH]2)CC1` [A-769], the residual activity [1] was 78%, the residual activity [2] was 100% and the residual activity [3] was 100%. It also gave a residual activity [4] of 100%, a residual activity [5] of 100% and a residual activity [6] of 97%. It also gave a residual activity [7] of 100%, a residual activity [8] of 99% and a residual activity [9] of 70%. The residual activity [10] was 79%, the residual activity [11] was 96% and the residual activity [12] was 100%. It also gave a residual activity [13] of 86%, a residual activity [14] of 90% and a residual activity [15] of 87%. It also gave a residual activity [16] of 100%, a residual activity [17] of 100% and a residual activity [18] of 100%. The residual activity [19] was 88%, the residual activity [20] was 100% and the residual activity [21] was 99%. The residual activity [22] was 100%, the residual activity [23] was 96% and the residual activity [24] was 100%. The residual activity [25] was 100%, the residual activity [26] was 100% and the residual activity [27] was 61%. The residual activity [28] was 94%, the residual activity [29] was 89% and the residual activity [30] was 88%. It also gave a residual activity [31] of 100%, a residual activity [32] of 100% and a residual activity [33] of 93%. It also gave a residual activity [34] of 100%, a residual activity [35] of 97% and a residual activity [36] of 94%. It also gave a residual activity [37] of 100%, a residual activity [38] of 84% and a residual activity [39] of 94%. The residual activity [40] was 98%, the residual activity [41] was 100% and the residual activity [42] was 100%. The residual activity [43] was 100%, the residual activity [44] was 81% and the residual activity [45] was 100%.
